Experimental data published in PMC6960228, “Ethoxysanguinarine, a Novel Direct Activator of AMP-Activated Protein Kinase, Induces Autophagy and Exhibits Therapeutic Potential in Breast Cancer Cells” (Frontiers in Pharmacology, 2020).

Key:
[1] = tested on: LC3-II and Beclin-1 in MCF-7, MDA-MB-231, and MDA-MB-436 cells; experiment: Western blot of autophagy markers; type: cell-based, human; settings: dose- and time-dependent
Protocol: Cells were lysed in radioimmunoprecipitation assay buffer containing 50 mM Tris, pH 8.0, 150 mM NaCl, 0.1% SDS, 0.5% sodium deoxycholate, 1% NP-40, 1 mM DTT, 1 mM NaF, 1 mM sodium orthovanadate, 1 mM phenylmethylsulfonyl fluoride (PMSF; Sigma-Aldrich; Merck KGaA), and 1% protease inhibitors cocktail (EMD Millipore, Billerica, MA, USA). Protein concentration was determined using the Bradford method. Equal amounts of sample (25 µg) were separated by SDS-PAGE (8–12% gels). Electrophoresed proteins were then transferred onto polyvinylidene fluoride membranes (EMD Millipore, Billerica, MA, USA). The membranes were blocked with 5% skimmed milk in Tris-buffered saline at room temperature for 1 h. Following blocking, membranes were incubated overnight at 4°C with primary antibodies and then rinsed with Tris-buffered saline with Tween 20. […]
Figure 2 Eth induces autophagy in BC cells. […] (C): MCF-7, MDA-MB-231, or MDA-MB-436 cells transfected with pQCXIP-GFP-LC3 plasmid were treated with increasing concentrations of Eth for 24 h, and assessed by immunoﬂuorescence analyses. […] (D): MDA-MB-231 or MDA-MB-436 cells transfected with pQCXIP-GFP-LC3 plasmid were treated with Eth (2.0 µM) and/or 3-MA (1 mM) for 24 h, and assessed by immunoﬂuorescence analyses. […] (F): MCF-7, MDA-MB-231, or MDA-MB-436 cells were treated with Eth (3.5 µM, 3.0 µM, or 3.0 µM) and/or 3-MA (1 mM) for 24 h and analyzed by MTT assay. […]

[2] = tested on: MCF-7, MDA-MB-231, and MDA-MB-436 cells; experiment: Soft-agar colony formation assay; type: cell-based, human; settings: 2 weeks
Protocol: Cells were suspended in 1 mL of L-15 or DMEM containing 0.3% low-melting-point agarose (Amresco, Cleveland, Oh, USA) and 10% FBS, and plated on a bottom layer containing 0.6% agarose and 10% FBS in 6-well plate in triplicate. After 2 weeks, plates were stained with 0.2% gentian violet and the colonies were counted under light microscope (IX70; Olympus Corporation, Tokyo, Japan) after 2 weeks.

[3] = tested on: MCF-10A; experiment: MTT cytotoxicity assay; type: cell-based, human
Text: Human BC cell lines MCF-7, MDA-MB-231, DMA-MB-436, SK-BR3, MDA-MB-468, MDA-MB-453, and MDA-MB-435S and non-tumorigenic MCF-10A human mammary epithelial cells were obtained from American Type Culture Collection (ATCC; Manassas, VA, USA). MCF-7, SK-BR3, MDA-MB-231, and MDA-MB-436 cells were maintained in Dulbecco’s modified Eagle’s medium (DMEM; high glucose; Gibco; Thermo Fisher Scientific, Inc., Waltham, MA, USA) supplemented with 10% fetal bovine serum (FBS; HyClone; Logan, UT, USA) and antibiotics and incubated in a humidified atmosphere with 5% CO2 at 37°C. MDA-MB-468, MDA-MB-453, and MDA-MB-435S cells were maintained in Leibovitz’s L-15 (Gibco) supplemented with 10% FBS and antibiotics and incubated in a humidified atmosphere without CO2 at 37°C. MCF-10A cells were maintained in DMEM/F12 medium containing 5% horse serum (HS), insulin ([…]), epidermal growth factor (EGF, 20 ng/mL), choleratoxin ([…]), hydrocortisone ([…]), penicillin (50 U/mL), and streptomycin (50 U/mL), and incubated in a humidified atmosphere with CO2 at 37°C.
Cells were seeded into 96-well plate and pre-cultured for 24 h, then treated with Eth for 24. Cell cytotoxicity was determined by MTT assay. […]

[4] = tested on: T47D; experiment: MTT cytotoxicity assay; type: cell-based; settings: Homo sapiens, 24 h, means ± SD of quadruplicate determinations
Protocol: Cells were seeded into 96-well plate and pre-cultured for 24 h, then treated with Eth for 24. Cell cytotoxicity was determined by MTT assay. The absorbance was measured at 490 nm by automated microplated reader (BioTek Instruments, Inc., Winooski, VT, USA), and the cell death rate was calculated as followed: inhibition rate (%) = (average A490 of the control group − average A490 of the experimental group)/(average A490 of the control group − average A490 of the blank group) × 100%. Cell viability was estimated by trypan blue dye exclusion.

Question: How did the “accumulation of LC3-II and Beclin-1” value [1] turn out when CCOC1c2c(ccc3c2OCO3)-c2ccc3cc4c(cc3c2N1C)OCO4 (centres unmarked) [Eth, Ethoxysanguinarine] was run?
Answer: induced the accumulation of LC3-II and Beclin-1

Question: And the “clonogenic ability (colony formation)” value [2]?
Answer: significantly inhibited the clonogenic ability

Question: What about the IC50 ([3]; Homo sapiens, MCF-10A, 24 h, MTT assay, means ± SD of quadruplicate determinations) of the same molecule?
Answer: 12.3 ± 2.05 µM

Question: What about the “sensitivity to Eth compared with the BC cell lines” value ([3]; normal human mammary epithelial cell line MCF-10A) of the same molecule?
Answer: less sensitive

Question: And the IC50 [4]?
Answer: 9.15 ± 1.83 µM
